# Assay results published in ChEMBL document CHEMBL1128388, “Ocular delivery of the beta-adrenergic antagonist alprenolol by sequential bioactivation of its methoxime analogue” (J Med Chem, 1995).
# Calls of active or inactive are those of the source. No cut-off for these calls is given here.
# How the values were obtained:
# [1] = system: Oryctolagus cuniculus; assay: Compound was tested for decrease in IOP for 2-3 h (in vivo); Significant reduction was observed; type: functional, organism-based
# [2] = system: Oryctolagus cuniculus; assay: Average IOP after administration was determined; type: functional
# [3] = Time within which only 10% of the drug was degraded; type: ADME; details: pH 4.50, room temperature
# [4] = system: Oryctolagus cuniculus; assay: Compound was tested for decrease in IOP (in vivo); 18% reduction of the control 21.4+/-0.3 mmHg; type: functional
Compound,Activity [1],Average IOP [2] [mmHg],t0.9 [3] [days],Activity [4] [mmHg]
C=CCc1ccccc1OCC(O)CNC(C)C (configuration not stated) [ALPRENOLOL],Active,20.6,–,–
C=CCc1ccccc1OC/C(CNC(C)C)=N\O,–,21.8,44,–
C=CCc1ccccc1OC/C(CNC(C)C)=N\OC,–,21.4,75,3.8
